pEC50: −log10 of the molar value.
Each compound was assayed against T1, GCase (Homo sapiens, UniProt P04062) (assay: activation of GCase in a live cell PFB assay in HELA cells). Conditions: EC50 given as range classes.
T1 construct: endogenous in cells; host or cells: HeLa cells
T1 sequence (P04062 40-536): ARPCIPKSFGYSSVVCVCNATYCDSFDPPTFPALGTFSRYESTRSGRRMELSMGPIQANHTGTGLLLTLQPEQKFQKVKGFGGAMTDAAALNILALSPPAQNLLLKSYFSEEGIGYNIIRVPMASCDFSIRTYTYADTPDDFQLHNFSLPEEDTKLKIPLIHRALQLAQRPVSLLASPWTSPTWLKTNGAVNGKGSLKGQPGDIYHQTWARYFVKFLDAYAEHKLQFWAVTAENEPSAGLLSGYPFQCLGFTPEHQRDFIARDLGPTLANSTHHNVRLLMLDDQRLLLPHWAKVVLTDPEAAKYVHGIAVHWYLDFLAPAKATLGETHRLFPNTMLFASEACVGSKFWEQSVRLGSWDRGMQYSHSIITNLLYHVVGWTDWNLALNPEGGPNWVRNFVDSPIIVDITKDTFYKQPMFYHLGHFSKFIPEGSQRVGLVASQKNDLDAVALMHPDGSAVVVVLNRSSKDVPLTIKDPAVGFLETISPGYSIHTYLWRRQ
Type: cell-based
Description: Exemplary compounds were evaluated for activation of GCase in a live cell PFB assay in HELA cells (essentially as described in Ysselstein et al., “LRRK2 kinase activity regulates lysosomal glucocerebrosidase in neurons derived from Parkinson's disease patients” Nature Communications (2019) 10:5570). […] EC50 ranges: A: <10 μM; B: >10-50 μM; C: >50-100 μM; D: >100 μM.

SMILES | pEC50
Cc1cc(C(F)(F)F)ncc1N1CC2(CCN(c3cnc4cnn(CC(F)F)c4n3)CC2)CC1=O [Cmpd 778] | > 5.00
COc1nc(C(F)(F)F)ccc1N1CC2(CCN(c3cnc4cnn(CC(F)F)c4n3)CC2)CC1=O [Cmpd 779] | > 5.00
O=C1CC2(CCN(c3cnc4cnn(CC(F)F)c4n3)CC2)CN1c1ccc(C(F)(F)F)nc1OC(F)F [Cmpd 780] | > 5.00

Same assay, conditions: activation of GCase, EC50 ranges

SMILES | pEC50
FC(F)Cn1ncc2ncc(N3CCC4(CC3)CC(Oc3ncccc3C(F)(F)F)C4)nc21 [Cmpd 708] | 4.30 to 5.00
FC(F)Cn1ncc2ncc(N3CCC4(CC3)CC(Oc3ccc(C(F)(F)F)nc3)C4)nc21 [Cmpd 709] | 4.30 to 5.00
FC(F)Cn1ncc2ncc(N3CCC4(CC3)CC(Oc3ccc(C(F)(F)F)cn3)C4)nc21 [Cmpd 710] | 4.30 to 5.00
O=C1N(c2cc(C(F)(F)F)ccn2)C(=O)C2(CCN(c3cnc4cnn(CC(F)F)c4n3)CC2)N1CC1CC1 [Cmpd 711] | 4.30 to 5.00
O=C1N(c2cc(C(F)(F)F)ccn2)C(=O)C2(CCN(c3cnc4cnn(CC(F)F)c4n3)CC2)N1CCC1CC1 [Cmpd 712] | 4.30 to 5.00
COCCN1C(=O)N(c2cc(C(F)(F)F)ccn2)C(=O)C12CCN(c1cnc3cnn(CC(F)F)c3n1)CC2 [Cmpd 713] | > 5.00
O=C1N(c2cc(C(F)(F)F)ccn2)C(=O)C2(CCN(c3cnc4cnn(CC(F)F)c4n3)CC2)N1Cc1ccc(F)cc1F [Cmpd 714] | > 5.00
O=C1N(c2cc(C(F)(F)F)ccn2)C(=O)C2(CCN(c3cnc4cnn(CC(F)F)c4n3)CC2)N1Cc1c(F)cccc1F [Cmpd 715] | > 5.00
O=C1N(c2cc(C(F)(F)F)ccn2)C(=O)C2(CCN(c3cnc4cnn(CC(F)F)c4n3)CC2)N1Cc1cc(F)cc(F)c1 [Cmpd 716] | > 5.00
O=C1N(c2cc(C(F)(F)F)ccn2)C(=O)C2(CCN(c3cnc4cnn(CC(F)F)c4n3)CC2)N1Cc1cccc(F)c1F [Cmpd 717] | > 5.00
O=C1N(c2cc(C(F)(F)F)ccn2)C(=O)C2(CCN(c3cnc4cnn(CC(F)F)c4n3)CC2)N1Cc1cc(F)ccc1F [Cmpd 718] | > 5.00
O=C1N(c2cc(C(F)(F)F)ccn2)C(=O)C2(CCN(c3cnc4cnn(CC(F)F)c4n3)CC2)N1Cc1ccc(F)c(F)c1 [Cmpd 719] | > 5.00
O=C1CC2(CN1c1ccnc(C(F)(F)F)c1)C1CC2CN(c2cnc3cnn(CC(F)F)c3n2)C1 (stereo not shown) [Cmpd 721] | < 4.00
O=C1CC2(CN1c1ccc(F)c(C(F)(F)F)c1)C1CC2CN(c2cnc3cnn(CC(F)F)c3n2)C1 (stereo not shown) [Cmpd 722] | 4.30 to 5.00
O=C1CC2(CC3CCC(C2)N3c2cnc3cnn(CC(F)F)c3n2)CN1c1cc(C(F)(F)F)ccn1 (stereo not shown) [Cmpd 723] | 4.30 to 5.00
O=C1CC2(CN1c1cc(C(F)(F)F)ccn1)C1CCC2CN(c2cnc3cnn(CC(F)F)c3n2)C1 (stereo not shown) [Cmpd 724] | 4.30 to 5.00
CC1CN(c2cnc3cnn(CC(F)F)c3n2)CCC12CC(=O)N(c1cc(C(F)(F)F)ccn1)C2 (stereo not shown) [Cmpd 725] | 4.30 to 5.00
CC1CC2(CCN1c1cnc3cnn(CC(F)F)c3n1)CC(=O)N(c1cc(C(F)(F)F)ccn1)C2 (stereo not shown) [Cmpd 726] | 4.30 to 5.00
O=C1CC2(CCN(c3cnc4cnn(CC(F)F)c4n3)CC2)CN1c1ccc(F)cc1F [Cmpd 728] | 4.30 to 5.00
O=C1CC2(CCN(c3cnc4cnn(CC(F)F)c4n3)CC2)CN1c1ccc(C(F)(F)F)cc1F [Cmpd 729] | > 5.00
Fc1ccc(N2CCC3(CCN(c4cnc5cnn(CC(F)F)c5n4)CC3)C2)c(F)c1 [Cmpd 730] | 4.30 to 5.00
FC(F)Cn1ncc2ncc(N3CCC4(CCN(c5cnnc(C(F)(F)F)c5)C4)CC3)nc21 [Cmpd 731] | 4.30 to 5.00
FC(F)Cn1ncc2ncc(N3CCC4(CCN(c5ccc(C(F)(F)F)nn5)C4)CC3)nc21 [Cmpd 732] | 4.30 to 5.00

SMILES | pEC50
FC(F)Cn1ncc2ncc(N3CCC4(CCN(c5cncc(C(F)(F)F)n5)C4)CC3)nc21 [Cmpd 733] | > 5.00
FC(F)Cn1ncc2ncc(N3CCC4(CCN(c5cnc(C(F)(F)F)cn5)C4)CC3)nc21 [Cmpd 734] | > 5.00
FC(F)Cn1ncc2ncc(N3CCC4(CC3)CCN(c3nccnc3C(F)(F)F)C4)nc21 [Cmpd 735] | 4.30 to 5.00
FC(F)Cn1ncc2ncc(N3CCC4(CCN(c5cnc(C(F)(F)F)nc5)C4)CC3)nc21 [Cmpd 736] | 4.30 to 5.00
FC(F)Cn1ncc2ncc(N3CCC4(CCN(c5ccnc(C(F)(F)F)n5)C4)CC3)nc21 [Cmpd 737] | > 5.00
FC(F)Cn1ncc2ncc(N3CCC4(CCN(c5ccnc(OCC(F)(F)F)n5)C4)CC3)nc21 [Cmpd 738] | > 5.00
FC(F)Cn1ncc2ncc(N3CCC4(CCN(c5cnc(OCC(F)(F)F)nc5)C4)CC3)nc21 [Cmpd 739] | > 5.00
Fc1cnc(N2CCC3(CCN(c4cnc5cnn(CC(F)F)c5n4)CC3)C2)cc1C(F)(F)F [Cmpd 740] | > 5.00
Fc1cnc(C(F)(F)F)cc1N1CCC2(CCN(c3cnc4cnn(CC(F)F)c4n3)CC2)C1 [Cmpd 741] | > 5.00
Fc1cc(N2CCC3(CCN(c4cnc5cnn(CC(F)F)c5n4)CC3)C2)cnc1C(F)(F)F [Cmpd 742] | > 5.00
Fc1cc(C(F)(F)F)cnc1N1CCC2(CCN(c3cnc4cnn(CC(F)F)c4n3)CC2)C1 [Cmpd 743] | 4.30 to 5.00
CC1CC2(CCN(c3cc(C(F)(F)F)ccn3)C2)CCN1c1cnc2cnn(CC(F)F)c2n1 (stereo not shown) [Cmpd 745] | > 5.00
CC1CN(c2cnc3cnn(CC(F)F)c3n2)CCC12CCN(c1cc(C(F)(F)F)ccn1)C2 (stereo not shown) [Cmpd 746] | > 5.00
CC1N(c2cc(C(F)(F)F)ccn2)CCC12CCN(c1cnc3cnn(CC(F)F)c3n1)CC2 (stereo not shown) [Cmpd 747] | 4.30 to 5.00
CC1CN(c2cc(C(F)(F)F)ccn2)CC12CCN(c1cnc3cnn(CC(F)F)c3n1)CC2 (stereo not shown) [Cmpd 748] | > 5.00
CC1CC2(CCN(c3cnc4cnn(CC(F)F)c4n3)CC2)CN1c1cc(C(F)(F)F)ccn1 (stereo not shown) [Cmpd 749] | 4.30 to 5.00
COCCn1ncc2ncc(N3CCC4(CCN(c5cc(C(F)(F)F)ccn5)C4)CC3)nc21 [Cmpd 750] | > 5.00
FC(F)OCCn1ncc2ncc(N3CCC4(CCN(c5cc(C(F)(F)F)ccn5)C4)CC3)nc21 [Cmpd 751] | 4.30 to 5.00
CC(C(F)F)n1ncc2ncc(N3CCC4(CCN(c5cc(C(F)(F)F)ccn5)C4)CC3)nc21 (stereo not shown) [Cmpd 752] | > 5.00
Cc1cc(C(F)(F)F)ncc1N1CCC2(CCN(c3cnc4cnn(CC(F)F)c4n3)CC2)C1 [Cmpd 753] | > 5.00
FC(F)Cn1ncc2ncc(N3CCC4(CC3)CCN(c3cnc(C(F)(F)F)cc3Cl)C4)nc21 [Cmpd 754] | < 4.00
Cc1cc(C)c(N2CCC3(CCN(c4cnc5cnn(CC(F)F)c5n4)CC3)C2)nn1 [Cmpd 755] | 4.30 to 5.00
Cc1cc(C(F)(F)F)nnc1N1CCC2(CCN(c3cnc4cnn(CC(F)F)c4n3)CC2)C1 [Cmpd 756] | 4.30 to 5.00

SMILES | pEC50
Cc1ccc(N2CCC3(CCN(c4cnc5cnn(CC(F)F)c5n4)CC3)C2)nn1 [Cmpd 757] | > 5.00
Cc1nccc(N2CCC3(CCN(c4cnc5cnn(CC(F)F)c5n4)CC3)C2)n1 [Cmpd 758] | > 5.00
Cc1ncc(N2CCC3(CCN(c4cnc5cnn(CC(F)F)c5n4)CC3)C2)cn1 [Cmpd 759] | > 5.00
CCc1ncc(N2CCC3(CCN(c4cnc5cnn(CC(F)F)c5n4)CC3)C2)cn1 [Cmpd 760] | > 5.00
Cc1nc(C(F)(F)F)ncc1N1CCC2(CCN(c3cnc4cnn(CC(F)F)c4n3)CC2)C1 [Cmpd 761] | > 5.00
COc1ncc(N2CCC3(CCN(c4cnc5cnn(CC(F)F)c5n4)CC3)C2)cn1 [Cmpd 762] | > 5.00
CCOc1ncc(N2CCC3(CCN(c4cnc5cnn(CC(F)F)c5n4)CC3)C2)cn1 [Cmpd 763] | > 5.00
Cc1ncc(N2CCC3(CCN(c4cnc5cnn(CC(F)F)c5n4)CC3)C2)nc1C(F)(F)F [Cmpd 764] | > 5.00
Cc1ncc(C(F)(F)F)nc1N1CCC2(CCN(c3cnc4cnn(CC(F)F)c4n3)CC2)C1 [Cmpd 765] | > 5.00
Fc1ncc(C(F)(F)F)nc1N1CCC2(CCN(c3cnc4cnn(CC(F)F)c4n3)CC2)C1 [Cmpd 766] | > 5.00
Fc1ncc(N2CCC3(CCN(c4cnc5cnn(CC(F)F)c5n4)CC3)C2)nc1C(F)(F)F [Cmpd 767] | > 5.00
FC(F)(F)c1cncc(N2CCC3(CCN(c4cnc5cnn(C6COC6)c5n4)CC3)C2)n1 [Cmpd 768] | > 5.00
O=C1CC2(CCN(c3cnc4cnn(C5COC5)c4n3)CC2)CN1c1ccnc(C(F)(F)F)c1 [Cmpd 769] | 4.30 to 5.00
FC(F)Cn1ncc2ncc(N3CC4(CCN(c5cnc(C(F)(F)F)cn5)CC4)C3)nc21 [Cmpd 770] | > 5.00
FC(F)Cn1ncc2ncc(N3CC4(CCN(c5cncc(C(F)(F)F)n5)CC4)C3)nc21 [Cmpd 771] | > 5.00
O=C1N(c2cnc3cnn(CC(F)F)c3n2)CCC12CCN(c1cnc(C(F)(F)F)cn1)CC2 [Cmpd 772] | < 4.00
O=C1N(c2nccc(C(F)(F)F)n2)CCC12CCN(c1cnc3cnn(CC(F)F)c3n1)CC2 [Cmpd 773] | > 5.00
O=C1N(c2cncc(C(F)(F)F)n2)CCC12CCN(c1cnc3cnn(CC(F)F)c3n1)CC2 [Cmpd 774] | > 5.00
Cc1cc(C(F)(F)F)cnc1N1CCC2(CCN(c3cnc4cnn(CC(F)F)c4n3)CC2)C1=O [Cmpd 775] | < 4.00
O=C1N(c2ncc(C(F)(F)F)cc2Cl)CCC12CCN(c1cnc3cnn(CC(F)F)c3n1)CC2 [Cmpd 776] | 4.30 to 5.00
O=C1N(c2ncc(C(F)(F)F)cc2F)CCC12CCN(c1cnc3cnn(CC(F)F)c3n1)CC2 [Cmpd 777] | < 4.00
